Values quoted from earlier work, collected in patent US5702721A (LTS Lohmann Therapie-Systeme GmbH & Co. KG, priority 1989, dated 1997).

Conditions: supersaturated solution resulting on evaporation of the highly volatile component of a mixture of volatile and non-volatile solvents

SMILES | skin penetration / resorption intensification
COC(=O)C1=C(C)NC(C)=C(C(=O)OC)C1c1ccccc1[N+](=O)[O-] [nifedipine] | confirmed these effects
C[C@]12C=CC(=O)C=C1[C@@H](F)C[C@H]1[C@@H]3C[C@@H](O)[C@](O)(C(=O)CO)[C@@]3(C)C[C@H](O)[C@@]12F [fluocinolone] | higher skin penetration
